Measurements taken from ChEMBL document CHEMBL1201862, “PubChem BioAssay data set” (2004).
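Grown in 96-well plates, cells were treated for 48 hours with each compound at five concentrations. Insufficient inhibition: endpoint recorded as highest concentration tested. Abbreviation: GI50, concentration required for 50% inhibition of growth.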 The source made the active and inactive calls. No stated cut-off is given here; in the data, active = GI50 up to about 1.1 µM and inactive = higher.

Tests used:
Assay in all cases: growth of human tumour cells (NCI), 48 h
786-0 = system: 786-0
A498 = system: A498
A549 = system: A549
ACHN = system: ACHN
CAKI-1 = system: CAKI-1
CCRF-CEM = system: CCRF-CEM
COLO 205 = system: COLO 205
DU-145 = system: DU-145
HCC 2998 = system: HCC 2998
HCT-116 = system: HCT-116
HCT-15 = system: HCT-15
HOP-92 = system: HOP-92
HT-29 = system: HT-29
K562 = system: K562
KM12 = system: KM12
LOX IMVI = system: LOX IMVI
M14 = system: M14
MCF7 = system: MCF7
MDA-MB-231 = system: MDA-MB-231
MDA-MB-435 = system: MDA-MB-435
MOLT-4 = system: MOLT-4
NCI-H226 = system: NCI-H226
NCI-H23 = system: NCI-H23
NCI-H460 = system: NCI-H460
NCI-H522 = system: NCI-H522
NCI/ADR-RES = system: NCI/ADR-RES
OVCAR-4 = system: OVCAR-4
OVCAR-5 = system: OVCAR-5
OVCAR-8 = system: OVCAR-8
PC-3 = system: PC-3
RPMI-8226 = system: RPMI-8226
RXF 393 = system: RXF 393
SF-268 = system: SF-268
SF-295 = system: SF-295
SF-539 = system: SF-539
SK-MEL-28 = system: SK-MEL-28
SK-MEL-2 = system: SK-MEL-2
SK-MEL-5 = system: SK-MEL-5
SK-OV-3 = system: SK-OV-3
SN12C = system: SN12C
SNB-19 = system: SNB-19
SR = system: SR
SW-620 = system: SW-620
TK-10 = system: TK-10
U-251 = system: U-251
UACC-257 = system: UACC-257
UACC-62 = system: UACC-62
UO-31 = system: UO-31
BT-549 = system: BT-549
EKVX = system: EKVX
HOP-62 = system: HOP-62
IGROV-1 = system: IGROV-1
MDA-N = system: MDA-N
OVCAR-3 = system: OVCAR-3
SNB-75 = system: SNB-75
HL-60 = system: HL-60
Hs-578T = system: Hs-578T

Measured: GI50

Oc1ccc(N=C2CCC(=C(c3ccccc3)c3ccc(Nc4ccc(O)cc4)cc3)CC2)cc1
> 100 µM: HCT-15
inactive: 786-0 78.7 µM | A498 > 100 µM | A549 83.9 µM | ACHN 67.1 µM | CAKI-1 35.4 µM | CCRF-CEM 88.9 µM | COLO 205 33.3 µM | DU-145 60.8 µM | HCC 2998 64.3 µM | HCT-116 39.4 µM | HOP-92 > 100 µM | HT-29 48.8 µM | K562 > 100 µM | KM12 32.4 µM | LOX IMVI 73.3 µM | M14 > 100 µM | MCF7 > 100 µM | MDA-MB-231 75.5 µM | MDA-MB-435 34.5 µM | MOLT-4 83.6 µM | NCI-H226 > 100 µM | NCI-H23 62.7 µM | NCI-H460 85.7 µM | NCI-H522 47 µM | NCI/ADR-RES 80.9 µM | OVCAR-4 86.5 µM | OVCAR-5 > 100 µM | OVCAR-8 48.5 µM | PC-3 96.2 µM | RPMI-8226 46.1 µM | RXF 393 58.6 µM | SF-268 50.9 µM | SF-295 > 100 µM | SF-539 46.1 µM | SK-MEL-28 > 100 µM | SK-MEL-2 77.6 µM | SK-MEL-5 > 100 µM | SK-OV-3 62.1 µM | SN12C 54.6 µM | SNB-19 78.5 µM | SR 19.7 µM | SW-620 58.1 µM | TK-10 > 100 µM | U-251 47.3 µM | UACC-257 > 100 µM | UACC-62 55.8 µM | UO-31 57.4 µM

CCOC(=O)N/N=C(\Cc1ccccc1)OCC
inactive: 786-0 > 100 µM | A549 > 100 µM | ACHN > 100 µM | BT-549 > 100 µM | CCRF-CEM > 100 µM | COLO 205 > 100 µM | DU-145 > 100 µM | EKVX > 100 µM | HCC 2998 > 100 µM | HCT-116 > 100 µM | HOP-62 > 100 µM | HOP-92 > 100 µM | HT-29 > 100 µM | IGROV-1 > 100 µM | K562 > 100 µM | KM12 > 100 µM | LOX IMVI > 100 µM | M14 > 100 µM | MCF7 > 100 µM | MDA-MB-231 > 100 µM | MDA-MB-435 > 100 µM | MDA-N > 100 µM | MOLT-4 > 100 µM | NCI-H23 > 100 µM | NCI-H522 > 100 µM | NCI/ADR-RES > 100 µM | OVCAR-3 > 100 µM | OVCAR-4 > 100 µM | OVCAR-5 > 100 µM | OVCAR-8 > 100 µM | PC-3 > 100 µM | RPMI-8226 > 100 µM | RXF 393 > 100 µM | SF-268 > 100 µM | SF-295 > 100 µM | SF-539 > 100 µM | SK-MEL-2 > 100 µM | SK-MEL-5 > 100 µM | SK-OV-3 > 100 µM | SN12C > 100 µM | SNB-19 > 100 µM | SNB-75 > 100 µM | SR > 100 µM | SW-620 > 100 µM | TK-10 > 100 µM | U-251 > 100 µM | UACC-257 > 100 µM | UACC-62 > 100 µM | UO-31 > 100 µM
> 100 µM: HCT-15

COc1cccc(/C=C2/Sc3scc(-c4ccccc4)[n+]3C2=O)c1O
inactive: 786-0 15.2 µM | A549 38.8 µM | ACHN 18.4 µM | BT-549 21.7 µM | CAKI-1 21.3 µM | CCRF-CEM 4.9 µM | COLO 205 31.8 µM | DU-145 22.1 µM | EKVX 19.2 µM | HCC 2998 16.6 µM | HCT-116 14.9 µM | HL-60 11.9 µM | HOP-62 23.8 µM | HOP-92 15.3 µM | HT-29 20.8 µM | Hs-578T 42.7 µM | IGROV-1 15.2 µM | KM12 18.6 µM | LOX IMVI 16.2 µM | M14 26 µM | MCF7 15.5 µM | MDA-MB-231 23.5 µM | MDA-MB-435 8.65 µM | MOLT-4 16.1 µM | NCI-H226 19.4 µM | NCI-H23 17.3 µM | NCI-H460 17.3 µM | NCI-H522 18.8 µM | NCI/ADR-RES 17.7 µM | OVCAR-3 26.6 µM | OVCAR-4 29.6 µM | OVCAR-5 36.7 µM | OVCAR-8 17.5 µM | PC-3 32.1 µM | RXF 393 14.4 µM | SF-268 41.2 µM | SF-295 37.3 µM | SF-539 16.1 µM | SK-MEL-28 17.3 µM | SK-MEL-2 23.3 µM | SK-MEL-5 14.4 µM | SK-OV-3 22.3 µM | SN12C 17.9 µM | SNB-19 21.3 µM | SNB-75 28.6 µM | SW-620 18.1 µM | TK-10 31 µM | U-251 19.6 µM | UACC-257 19.7 µM | UACC-62 15.5 µM | UO-31 13.3 µM
13.6 µM: HCT-15
